# Measurements published in patent US9439432B2, “Phenylisoxazoline-based compound having herbicidal activity and use thereof” (MOGHU RESEARCH CENTER LTD, priority 2011, dated 2016).
# Columns and labels:
# Type in all cases: in vivo
# [1] = test system: Cotton; experiment: Pre-emergence treatment, phytotoxicity to cotton; settings: 500 g/ha, 4 weeks after spraying, scale 0 to 10 (0: no effects, 10: complete death)
# Method: (§1) A rectangular plastic pot having a surface area of 300 cm^2 was filled with sandy loam soil and mixed bed soil which were mixed at a ratio of 1:1, and then, barnyardrass (Echinochloa crusgalli), large crabgrass (Digitaria sanguinalis), blackgrass (Alopecurus myosuroides), and annual bluegrass (Poa annua), which are grass weeds, were seeded thereto. In a pot that was prepared as described above, seeds of corn, soybean, cotton, wheat, and rice were seeded. The pots were irrigated, and one day after, chemicals were sprayed thereto. The spraying was performed by using a track sprayer (R&D Sprayer, USA) equipped with a Teejet 8002 (Spraying Systems Co., USA) nozzle, and a spraying amount was adjusted at 300 L/ha. A spraying solution was prepared by dissolving test materials or references in acetone and adding the same amount of 0.2%(v/v) tween 20 aqueous solution thereto. Application rates were 500, 250, 125, and 62.5 g/ha. The pots were placed in a greenhouse in which during day, the temperature was maintained at a temperature of 25 to 30° C., and during night, the temperature was maintained at a temperature of 15 to 25° C., and the pots were periodically irrigated. Four weeks after the spraying the test materials or References, effects and phytotoxicity of the respective weeds and crops were evaluated in a scale of 0 to 10 (0: no effects, 10: complete death), and results thereof are shown in Table 4 below.
# [2] = test system: barnyardgrass, large crabgrass, and annual bluegrass; experiment: Post-emergence treatment, grass weeds overall; settings: 250 g/ha
# Method: as §1
# (§2) Pots containing crops and weeds were prepared in the same manner as in Example 7, and then, in the second week in which crops and weeds entered into about 3 leaf stage, the test materials and the references were sprayed thereto in the same manner as described above. The rates were 1,000, 500, 250, and 125 g/ha. Four weeks after the spraying of the test materials or the references, herbicidal efficacy and phytotoxicity to the respective weeds and crops were evaluated in a scale of 0 to 10 (0: no effects, 10: complete death).
# [3] = test system: Alopecurus myosuroides; experiment: Post-emergence treatment, herbicidal efficacy on blackgrass; settings: 4 weeks after spraying, scale 0 to 10
# Method: as §1, §2
# [4] = test system: Poa annua; experiment: Pre-emergence treatment, herbicidal efficacy on annual bluegrass; settings: 4 weeks after spraying, scale 0 to 10
# Method: as §1
# [5] = test system: Digitaria sanguinalis; experiment: Post-emergence treatment, herbicidal efficacy on large crabgrass; settings: 4 weeks after spraying, scale 0 to 10
# Method: as §1, §2
# [6] = test system: Rice; experiment: Post-emergence treatment, phytotoxicity to rice; settings: post-emergence (about 3 leaf stage), 1,000 g/ha, 4 weeks after spraying, scale 0 to 10 (0: no effects, 10: complete death)
# Method: as §1, §2
# [7] = test system: grass weeds including barnyardrass, large crabgrass, and annual bluegrass; experiment: Pre-emergence treatment, grass weeds overall; settings: relative to reference compounds
# Method: as §1
# [8] = test system: Corn; experiment: Pre-emergence treatment, phytotoxicity to corn; settings: 500 g/ha, 4 weeks after spraying, scale 0 to 10 (0: no effects, 10: complete death)
# Method: as §1
# [9] = test system: Soybean; experiment: Pre-emergence treatment, phytotoxicity to soybean; settings: 500 g/ha, 4 weeks after spraying, scale 0 to 10 (0: no effects, 10: complete death)
# Method: as §1
# [10] = test system: Alopecurus myosuroides; experiment: Pre-emergence treatment, herbicidal efficacy on blackgrass; settings: 4 weeks after spraying, scale 0 to 10
# Method: as §1
# [11] = test system: Echinochloa crusgalli; experiment: Pre-emergence treatment, herbicidal efficacy on barnyardgrass; settings: 4 weeks after spraying
# Method: as §1
# [12] = test system: Cotton; experiment: Post-emergence treatment, phytotoxicity to cotton; settings: post-emergence (about 3 leaf stage), 1,000 g/ha, 4 weeks after spraying, scale 0 to 10 (0: no effects, 10: complete death)
# Method: as §1, §2
# [13] = test system: Digitaria sanguinalis; experiment: Pre-emergence treatment, herbicidal efficacy on large crabgrass; settings: 4 weeks after spraying, scale 0 to 10
# Method: as §1
# [14] = test system: Wheat; experiment: Post-emergence treatment, phytotoxicity to wheat; settings: post-emergence (about 3 leaf stage), 1,000 g/ha, 4 weeks after spraying, scale 0 to 10 (0: no effects, 10: complete death)
# Method: as §1, §2
# [15] = test system: Poa annua; experiment: Post-emergence treatment, herbicidal efficacy on annual bluegrass; settings: 4 weeks after spraying, scale 0 to 10
# Method: as §1, §2
# [16] = test system: Rice; experiment: Pre-emergence treatment, phytotoxicity to rice; settings: 500 g/ha, 4 weeks after spraying, scale 0 to 10 (0: no effects, 10: complete death)
# Method: as §1
# [17] = test system: Soybean; experiment: Post-emergence treatment, phytotoxicity to soybean; settings: post-emergence (about 3 leaf stage), 1,000 g/ha, 4 weeks after spraying, scale 0 to 10 (0: no effects, 10: complete death)
# Method: as §1, §2
# [18] = test system: Corn; experiment: Post-emergence treatment, phytotoxicity to corn; settings: post-emergence (about 3 leaf stage), 1,000 g/ha, 4 weeks after spraying, scale 0 to 10 (0: no effects, 10: complete death)
# Method: as §1, §2
# [19] = test system: Echinochloa crusgalli; experiment: Post-emergence treatment, herbicidal efficacy on barnyardgrass; settings: 4 weeks after spraying, scale 0 to 10
# Method: as §1, §2
# [20] = test system: Wheat; experiment: Pre-emergence treatment, phytotoxicity to wheat; settings: 500 g/ha, 4 weeks after spraying, scale 0 to 10 (0: no effects, 10: complete death)
# Method: as §1
# [21] = 500 g/ha, scale 0 to 10 (0: no effects, 10: complete death)
structure (smiles),measurement,setting,value
"Cc1ccccc1C1=NOC(C)(COCc2c(F)cccc2F)C1 (stereo not shown) [Compound 1, 5-((2,6-difluorobenzyloxy)methyl)-5-methyl-3-o-tolyl-4,5-dihydroisoxazole]","Phytotoxicity, Cotton",[1],0
same,"suppression of barnyardgrass, large crabgrass, and annual bluegrass",[2],greatly suppressed
same,"Herbicidal efficacy, Alopecurus myosuroides","[3]; post-emergence, 125 g/ha",2
same,"Herbicidal efficacy, Alopecurus myosuroides","[3]; post-emergence, 250 g/ha",8
same,"Herbicidal efficacy, Alopecurus myosuroides","[3]; post-emergence, 500 g/ha",7
same,"Herbicidal efficacy, Alopecurus myosuroides","[3]; post-emergence, 1,000 g/ha",9
same,"Herbicidal efficacy, Poa annua",[4]; 62.5 g/ha,9
same,"Herbicidal efficacy, Poa annua",[4]; 125 g/ha,10
same,"Herbicidal efficacy, Poa annua",[4]; 250 g/ha,10
same,"Herbicidal efficacy, Poa annua",[4]; 500 g/ha,10
same,"Herbicidal efficacy, Digitaria sanguinalis","[5]; post-emergence, 125 g/ha",6
same,"Herbicidal efficacy, Digitaria sanguinalis","[5]; post-emergence, 250 g/ha",9
same,"Herbicidal efficacy, Digitaria sanguinalis","[5]; post-emergence, 500 g/ha",10
same,"Herbicidal efficacy, Digitaria sanguinalis","[5]; post-emergence, 1,000 g/ha",10
same,"Phytotoxicity, Rice",[6],0
same,efficacy stronger than the References,[7],about 8 times
same,"Phytotoxicity, Corn",[8],1
same,"Phytotoxicity, Soybean",[9],0
same,"Herbicidal efficacy, Alopecurus myosuroides",[10]; 62.5 g/ha,4
same,"Herbicidal efficacy, Alopecurus myosuroides",[10]; 125 g/ha,6
same,"Herbicidal efficacy, Alopecurus myosuroides",[10]; 250 g/ha,8
same,"Herbicidal efficacy, Alopecurus myosuroides",[10]; 500 g/ha,9
same,"Herbicidal efficacy, Echinochloa crusgalli","[11]; 62.5 g/ha, scale 0 to 10",10
same,"Herbicidal efficacy, Echinochloa crusgalli","[11]; 125 g/ha, scale 0 to 10",10
same,"Herbicidal efficacy, Echinochloa crusgalli","[11]; 250 g/ha, scale 0 to 10",10
same,"Herbicidal efficacy, Echinochloa crusgalli",[11]; [21],10
same,"Phytotoxicity, Cotton",[12],2
same,"Herbicidal efficacy, Digitaria sanguinalis",[13]; 62.5 g/ha,9
same,"Herbicidal efficacy, Digitaria sanguinalis",[13]; 125 g/ha,10
same,"Herbicidal efficacy, Digitaria sanguinalis",[13]; 250 g/ha,10
same,"Herbicidal efficacy, Digitaria sanguinalis",[13]; 500 g/ha,10
same,"Phytotoxicity, Wheat",[14],0
same,"Herbicidal efficacy, Poa annua","[15]; post-emergence, 125 g/ha",5
same,"Herbicidal efficacy, Poa annua","[15]; post-emergence, 250 g/ha",8
same,"Herbicidal efficacy, Poa annua","[15]; post-emergence, 500 g/ha",9
same,"Herbicidal efficacy, Poa annua","[15]; post-emergence, 1,000 g/ha",10
same,"Phytotoxicity, Rice",[16],0
same,"Phytotoxicity, Soybean",[17],2
same,"Phytotoxicity, Corn",[18],2
same,"Herbicidal efficacy, Echinochloa crusgalli","[19]; post-emergence, 125 g/ha",7
same,"Herbicidal efficacy, Echinochloa crusgalli","[19]; post-emergence, 250 g/ha",9
same,"Herbicidal efficacy, Echinochloa crusgalli","[19]; post-emergence, 500 g/ha",10
same,"Herbicidal efficacy, Echinochloa crusgalli","[19]; post-emergence, 1,000 g/ha",10
same,"Phytotoxicity, Wheat",[20],0
"CC1(COCc2c(F)cccc2F)CC(c2ccccc2F)=NO1 (stereo not shown) [Compound 4, 5-((2,6-difluorobenzyloxy)methyl)-3-(2-fluorophenyl)-5-methyl-4,5-dihydroisoxazole]","Phytotoxicity, Cotton",[1],1
same,"suppression of barnyardgrass, large crabgrass, and annual bluegrass",[2],greatly suppressed
same,"Herbicidal efficacy, Alopecurus myosuroides","[3]; post-emergence, 125 g/ha",0
same,"Herbicidal efficacy, Alopecurus myosuroides","[3]; post-emergence, 250 g/ha",4
same,"Herbicidal efficacy, Alopecurus myosuroides","[3]; post-emergence, 500 g/ha",9
same,"Herbicidal efficacy, Alopecurus myosuroides","[3]; post-emergence, 1,000 g/ha",10
same,"Herbicidal efficacy, Poa annua",[4]; 62.5 g/ha,9
same,"Herbicidal efficacy, Poa annua",[4]; 125 g/ha,10
same,"Herbicidal efficacy, Poa annua",[4]; 250 g/ha,10
same,"Herbicidal efficacy, Poa annua",[4]; 500 g/ha,10
same,"Herbicidal efficacy, Digitaria sanguinalis","[5]; post-emergence, 125 g/ha",6
same,"Herbicidal efficacy, Digitaria sanguinalis","[5]; post-emergence, 250 g/ha",6
same,"Herbicidal efficacy, Digitaria sanguinalis","[5]; post-emergence, 500 g/ha",10
same,"Herbicidal efficacy, Digitaria sanguinalis","[5]; post-emergence, 1,000 g/ha",10
same,"Phytotoxicity, Rice",[6],2
same,efficacy stronger than the References,[7],about 4 times
same,"Phytotoxicity, Corn",[8],4
same,"Phytotoxicity, Soybean",[9],0
same,"Herbicidal efficacy, Alopecurus myosuroides",[10]; 62.5 g/ha,3
same,"Herbicidal efficacy, Alopecurus myosuroides",[10]; 125 g/ha,4
same,"Herbicidal efficacy, Alopecurus myosuroides",[10]; 250 g/ha,8
same,"Herbicidal efficacy, Alopecurus myosuroides",[10]; 500 g/ha,10
same,"Herbicidal efficacy, Echinochloa crusgalli","[11]; 62.5 g/ha, scale 0 to 10",7
same,"Herbicidal efficacy, Echinochloa crusgalli","[11]; 125 g/ha, scale 0 to 10",10
same,"Herbicidal efficacy, Echinochloa crusgalli","[11]; 250 g/ha, scale 0 to 10",10
same,"Herbicidal efficacy, Echinochloa crusgalli",[11]; [21],10
same,"Phytotoxicity, Cotton",[12],0
same,"Herbicidal efficacy, Digitaria sanguinalis",[13]; 62.5 g/ha,10
same,"Herbicidal efficacy, Digitaria sanguinalis",[13]; 125 g/ha,10
same,"Herbicidal efficacy, Digitaria sanguinalis",[13]; 250 g/ha,10
same,"Herbicidal efficacy, Digitaria sanguinalis",[13]; 500 g/ha,10
same,"Phytotoxicity, Wheat",[14],1
same,"Herbicidal efficacy, Poa annua","[15]; post-emergence, 125 g/ha",6
same,"Herbicidal efficacy, Poa annua","[15]; post-emergence, 250 g/ha",7
same,"Herbicidal efficacy, Poa annua","[15]; post-emergence, 500 g/ha",10
same,"Herbicidal efficacy, Poa annua","[15]; post-emergence, 1,000 g/ha",10
same,"Phytotoxicity, Rice",[16],0
same,"Phytotoxicity, Soybean",[17],1
same,"Phytotoxicity, Corn",[18],4
same,"Herbicidal efficacy, Echinochloa crusgalli","[19]; post-emergence, 125 g/ha",5
same,"Herbicidal efficacy, Echinochloa crusgalli","[19]; post-emergence, 250 g/ha",8
same,"Herbicidal efficacy, Echinochloa crusgalli","[19]; post-emergence, 500 g/ha",10
same,"Herbicidal efficacy, Echinochloa crusgalli","[19]; post-emergence, 1,000 g/ha",10
same,"Phytotoxicity, Wheat",[20],0
